Each structure is given as a SMILES string. Where two headings read alike, the source gives them in different places. A value given as a limit tells only on which side of the number the result lay.

One may read the mortality as the percentage killed.

Assay type in all cases: in vivo
Test [1] deals with Plutella xylostella (Diamond Back Moth). Put plainly: Plutella xylostella (diamond back moth), feeding/contact activity on artificial diet, mortality. Particulars: 120 h, application rate 200 ppm, L2 larvae on artificial diet, 5 days after infestation, read-out: mortality. On the procedure:
Plutella xylostella (Diamond Back Moth): Feeding/Contact Activity
24-well microtiter plates with artificial diet were treated with aqueous test solutions prepared from 10′000 ppm DMSO stock solutions by pipetting. After drying, the plates were infested with L2 larvae (10 to 15 per well). The samples were assessed for mortality 5 days after infestation.

The test system of test [2] is Tetranychus urticae (Two-Spotted Spider Mite). Put plainly: Tetranychus urticae (two-spotted spider mite), feeding/contact activity, mortality. Particulars: 192 h, application rate 200 ppm, mixed population (mobile stages), 8 days after infestation. On the procedure:
Tetranychus urticae (Two-Spotted Spider Mite): Feeding/Contact Activity
Bean leaf discs on agar in 24-well microtiter plates were sprayed with aqueous test solutions prepared from 10′000 ppm DMSO stock solutions. After drying the leaf discs were infested with a mite population of mixed ages. The samples were assessed for mortality on mixed population (mobile stages) 8 days after infestation.

In test [3] the test system is Euschistus heros (Neotropical Brown Stink Bug). The test can be described thus: Euschistus heros (neotropical brown stink bug), feeding/contact activity, mortality. Particulars: 120 h, application rate 200 ppm, N2 nymphs, 5 days after infestation, read-out: mortality. The protocol: Euschistus heros (Neotropical Brown Stink Bug): Feeding/contact activity
Soybean leaves on agar in 24-well microtiter plates were sprayed with aqueous test solutions prepared from 10′000 ppm DMSO stock solutions. After drying the leaves were infested with N2 nymphs. The samples were assessed for mortality 5 days after infestation.

Test [4] concerns Spodoptera littoralis (Egyptian Cotton Leaf Worm). The test can be described thus: Spodoptera littoralis (Egyptian cotton leaf worm), feeding/contact activity, mortality. Particulars: 72 h, application rate 200 ppm, L1 larvae, 3 days after infestation, read-out: mortality. The protocol:
Spodoptera littoralis (Egyptian Cotton Leaf Worm): Feeding/Contact Activity
Cotton leaf discs were placed onto agar in 24-well microtiter plates and sprayed with aqueous test solutions prepared from 10′000 ppm DMSO stock solutions. After drying the leaf discs were infested with five L1 larvae. The samples were assessed for mortality 3 days after infestation.

Test [5] relates to Plutella xylostella (Diamond Back Moth, Larvicide L-2/3). The test can be described thus: Biological comparison: insecticidal activity against Plutella xylostella, larvicide L-2/3, sprayed Chinese cabbage plants. Particulars: 120 h. On the procedure: Biological Comparison Data:
Compound A is disclosed in WO2014/122083 as example (Ic-2) (p. 82, Table 3). The activities of compounds A is compared with the activities of compound 41 and 42, according to the present invention. The tests are carried out at different concentrations (ppm).
a) Insecticidal Activity Against Plutella xylostella (Diamond Back Moth, Larvicide L-2/3, Feeding/Contact)
Chinese cabbage plants are sprayed with diluted test solutions in an application chamber. 1 day after treatment, excised leaves are placed in petri dishes and infested with 10 L2 (2 replicates). Samples are checked 5 days after infestation for mortality, feeding behavior, and growth regulation.

For test [6], the system named is Diabrotica balteata (Corn Root Worm). The test can be described thus: Diabrotica balteata (corn root worm), sprayed maize sprouts on agar, mortality. Particulars: 96 h, application rate 200 ppm, L2 larvae, 4 days after infestation, read-out: mortality. On the procedure: Diabrotica balteata (Corn Root Worm):
Maize sprouts placed onto an agar layer in 24-well microtiter plates were treated with aqueous test solutions prepared from 10′000 ppm DMSO stock solutions by spraying. After drying, the plates were infested with L2 larvae (6 to 10 per well). The samples were assessed for mortality 4 days after infestation.

The subject of test [7] is Thrips tabaci (Onion Thrips). The test can be described thus: Thrips tabaci (onion thrips), feeding/contact activity, mortality. Particulars: 144 h, application rate 200 ppm, thrips population of mixed ages, 6 days after infestation, read-out: mortality. The protocol: Thrips tabaci (Onion Thrips): Feeding/Contact Activity
Sunflower leaf discs were placed on agar in 24-well microtiter plates and sprayed with aqueous test solutions prepared from 10′000 ppm DMSO stock solutions. After drying the leaf discs were infested with a thrips population of mixed ages. The samples were assessed for mortality 6 days after infestation.

Test [8] concerns Myzus persicae (Green Peach Aphid). Put plainly: Myzus persicae (green peach aphid), feeding/contact activity, mortality. Particulars: 144 h, application rate 200 ppm, aphid population of mixed ages, 6 days after infestation. On the procedure: Myzus persicae (Green Peach Aphid): Feeding/Contact Activity
Sunflower leaf discs were placed onto agar in a 24-well microtiter plate and sprayed with aqueous test solutions prepared from 10′000 ppm DMSO stock solutions. After drying, the leaf discs were infested with an aphid population of mixed ages. The samples were assessed for mortality 6 days after infestation.

Where [9] appears, read: concentration 0.0125 ppm, L2 larvae, 5 days after infestation, read-out: Mortality (%).
[10] abbreviates: concentration 0.05 ppm, L2 larvae, 5 days after infestation, read-out: Mortality (%).
Where [11] appears, read: concentration 0.2 ppm, L2 larvae, 5 days after infestation, read-out: Mortality (%).
Setting [12] is: concentration 0.8 ppm, L2 larvae, 5 days after infestation, read-out: Mortality (%).

`CN(C(=O)c1cc(-c2cnn(-c3c(OC(F)F)c(C(F)(F)C(F)(F)F)nn3C)c2)ccc1Cl)C1(C#N)CC1` [Compound 41]: the mortality at 200 ppm in test [1], in test [2], in test [3], in test [4], in test [6] and in test [7] was at least 80% in each case. Besides, the mortality at 0.0125 ppm in test [5] (setting [9]) was determined as 90%. Besides, the mortality at 0.05 ppm in test [5] (setting [10]) was 100%. Moreover, in test [5] (setting [11]), the mortality at 0.2 ppm was determined as 100%. The mortality at 0.8 ppm in test [5] (setting [12]) was 100%.
Consider `CCN(C(=O)c1cc(-c2cnn(-c3c(OC(F)F)c(C(F)(F)C(F)(F)F)nn3C)c2)ccc1Cl)C1(C#N)CC1` [Compound 42], for which the mortality at 200 ppm in test [1], in test [2], in test [3], in test [4], in test [8] and in test [6] was at least 80% each time. Also, the mortality at 200 ppm in test [7] was at least 80%. For the same compound, the mortality at 0.0125 ppm in test [5] (setting [9]) worked out at 95%. Besides, the mortality at 0.05 ppm in test [5] (setting [10]) is 100%. Also, the mortality at 0.2 ppm in test [5] (setting [11]) was found to be 100%. Also, in test [5] (setting [12]), the mortality at 0.8 ppm was 100%.
As to `Cn1nc(C(F)(F)C(F)(F)F)c(C(F)(F)F)c1-n1cc(-c2ccc(Cl)c(C(=O)NC3(C#N)CC3)c2)cn1` [Cpd A, reference compound], in test [5], the mortality at 0.0125 ppm came to 35%, the mortality at 0.05 ppm was 85%, the mortality at 0.2 ppm stood at 100% and the mortality at 0.8 ppm stood at 100%.
